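Test compounds were applied to cells in 96-well plates for 48 hours at 5 doses. GI50 marks 50% less growth. TGI: concentration producing complete growth inhibition.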
Key:
Assay in all cases: growth of human tumour cells (NCI), 48 h; in the data active = GI50 below about 0.43 µM; inactive = the rest
SW-620 colon = system: SW-620 colon
M14 melanoma = system: M14 melanoma
SNB-75 CNS = system: SNB-75 CNS
NCI-H226 lung = system: NCI-H226 lung
PC-3 prostate = system: PC-3 prostate
T-47D breast = system: T-47D breast
U251 CNS = system: U251 CNS
A498 renal = system: A498 renal
SK-OV-3 ovarian = system: SK-OV-3 ovarian
RXF 393 renal = system: RXF 393 renal
HCT-116 colon = system: HCT-116 colon
OVCAR-8 ovarian = system: OVCAR-8 ovarian
HCC-2998 colon = system: HCC-2998 colon
HL-60(TB) leukemia = system: HL-60(TB) leukemia
EKVX NSCLC = system: EKVX NSCLC
SK-MEL-5 melanoma = system: SK-MEL-5 melanoma
LOX IMVI melanoma = system: LOX IMVI melanoma
NCI-H460 lung = system: NCI-H460 lung
OVCAR-4 ovarian = system: OVCAR-4 ovarian
HS 578T breast = system: HS 578T breast
MDA-MB-435 = system: MDA-MB-435
786-0 renal = system: 786-0 renal
HT29 colon = system: HT29 colon
CAKI-1 renal = system: CAKI-1 renal
TK-10 renal = system: TK-10 renal
SN12C renal = system: SN12C renal
KM12 colon = system: KM12 colon
NCI-H23 lung = system: NCI-H23 lung
IGROV1 ovarian = system: IGROV1 ovarian
MOLT-4 leukemia = system: MOLT-4 leukemia
HOP-62 NSCLC = system: HOP-62 NSCLC
NCI-H522 lung = system: NCI-H522 lung
SNB-19 CNS = system: SNB-19 CNS
UO-31 renal = system: UO-31 renal
RPMI-8226 leukemia = system: RPMI-8226 leukemia
SK-MEL-2 melanoma = system: SK-MEL-2 melanoma
MDA-MB-231 breast = system: MDA-MB-231 breast
MALME-3M melanoma = system: MALME-3M melanoma
CCRF-CEM leukemia = system: CCRF-CEM leukemia
K-562 leukemia = system: K-562 leukemia
MCF7 breast = system: MCF7 breast
UACC-62 melanoma = system: UACC-62 melanoma
SF-268 CNS = system: SF-268 CNS
UACC-257 melanoma = system: UACC-257 melanoma
NCI/ADR-RES ovarian = system: NCI/ADR-RES ovarian
HOP-92 NSCLC = system: HOP-92 NSCLC
HCT-15 colon = system: HCT-15 colon
SK-MEL-28 melanoma = system: SK-MEL-28 melanoma
COLO 205 colon = system: COLO 205 colon
SF-539 CNS = system: SF-539 CNS
BT-549 breast = system: BT-549 breast
OVCAR-5 ovarian = system: OVCAR-5 ovarian
SR leukemia = system: SR leukemia
DU-145 prostate = system: DU-145 prostate
A549 NSCLC = system: A549 NSCLC
ACHN renal = system: ACHN renal
SF-295 CNS = system: SF-295 CNS

CNC(=O)c1cc(Oc2ccc3c(c2)sc2nc(-c4ccc(N(C)C)cc4)cn23)ccn1
237 nM: TGI (MDA-MB-435)
31400 nM: TGI (BT-549 breast)
> 18100 nM: TGI (786-0 renal)
> 44100 nM: TGI (HS 578T breast)
739 nM: TGI (HT29 colon)
740 nM: TGI (NCI-H522 lung)
440 nM: TGI (RXF 393 renal)
398 nM: TGI (SNB-75 CNS)
> 10500 nM: TGI (SK-MEL-2 melanoma)
6370 nM: TGI (U251 CNS)
active: GI50 (SW-620 colon) 226 nM | GI50 (M14 melanoma) 193 nM | GI50 (SNB-75 CNS) 123 nM | GI50 (NCI-H226 lung) 390 nM | GI50 (PC-3 prostate) 225 nM | GI50 (T-47D breast) 271 nM | GI50 (U251 CNS) 210 nM | GI50 (A498 renal) 140 nM | GI50 (SK-OV-3 ovarian) 273 nM | GI50 (RXF 393 renal) 128 nM | GI50 (HCT-116 colon) 241 nM | GI50 (OVCAR-8 ovarian) 355 nM | GI50 (HL-60(TB) leukemia) 134 nM | GI50 (SK-MEL-5 melanoma) 206 nM | GI50 (NCI-H460 lung) 206 nM | GI50 (HS 578T breast) 219 nM | GI50 (MDA-MB-435) 94 nM | GI50 (786-0 renal) 291 nM | GI50 (HT29 colon) 177 nM | GI50 (CAKI-1 renal) 291 nM | GI50 (SN12C renal) 282 nM | GI50 (KM12 colon) 241 nM | GI50 (IGROV1 ovarian) 292 nM | GI50 (MOLT-4 leukemia) 213 nM | GI50 (HOP-62 NSCLC) 319 nM | GI50 (NCI-H522 lung) 146 nM | GI50 (SNB-19 CNS) 251 nM | GI50 (UO-31 renal) 289 nM | GI50 (RPMI-8226 leukemia) 329 nM | GI50 (MALME-3M melanoma) 291 nM | GI50 (CCRF-CEM leukemia) 197 nM | GI50 (K-562 leukemia) 152 nM | GI50 (MCF7 breast) 167 nM | GI50 (UACC-62 melanoma) 170 nM | GI50 (NCI/ADR-RES ovarian) 186 nM | GI50 (HOP-92 NSCLC) 260 nM | GI50 (HCT-15 colon) 202 nM | GI50 (COLO 205 colon) 260 nM | GI50 (SF-539 CNS) 178 nM | GI50 (BT-549 breast) 208 nM | GI50 (SR leukemia) 114 nM | GI50 (A549 NSCLC) 409 nM | GI50 (ACHN renal) 303 nM | GI50 (SF-295 CNS) 160 nM
> 13400 nM: TGI (HCC-2998 colon)
1770 nM: TGI (LOX IMVI melanoma)
2110 nM: TGI (SK-MEL-5 melanoma)
> 30300 nM: TGI (HOP-92 NSCLC)
1280 nM: TGI (SF-539 CNS)
2600 nM: TGI (OVCAR-8 ovarian)
inactive: GI50 (HCC-2998 colon) 836 nM | GI50 (EKVX NSCLC) 1980 nM | GI50 (LOX IMVI melanoma) 474 nM | GI50 (TK-10 renal) 3720 nM | GI50 (NCI-H23 lung) 614 nM | GI50 (SK-MEL-2 melanoma) 496 nM | GI50 (MDA-MB-231 breast) 438 nM | GI50 (SF-268 CNS) 854 nM | GI50 (UACC-257 melanoma) 19600 nM | GI50 (SK-MEL-28 melanoma) 1740 nM | GI50 (OVCAR-5 ovarian) 659 nM | GI50 (DU-145 prostate) 451 nM
831 nM: TGI (A498 renal)
> 37000 nM: TGI (MDA-MB-231 breast)
3480 nM: TGI (HL-60(TB) leukemia)
1960 nM: TGI (COLO 205 colon)
1150 nM: TGI (SF-295 CNS)
> 50000 nM: TGI (SW-620 colon) | TGI (M14 melanoma) | TGI (NCI-H226 lung) | TGI (PC-3 prostate) | TGI (T-47D breast) | TGI (SK-OV-3 ovarian) | TGI (HCT-116 colon) | TGI (EKVX NSCLC) | TGI (NCI-H460 lung) | TGI (OVCAR-4 ovarian) | TGI (CAKI-1 renal) | TGI (TK-10 renal) | TGI (SN12C renal) | TGI (KM12 colon) | TGI (NCI-H23 lung) | TGI (IGROV1 ovarian) | TGI (MOLT-4 leukemia) | TGI (HOP-62 NSCLC) | TGI (SNB-19 CNS) | TGI (UO-31 renal) | TGI (RPMI-8226 leukemia) | TGI (MALME-3M melanoma) | TGI (CCRF-CEM leukemia) | TGI (K-562 leukemia) | TGI (MCF7 breast) | TGI (UACC-62 melanoma) | TGI (SF-268 CNS) | TGI (UACC-257 melanoma) | TGI (NCI/ADR-RES ovarian) | TGI (HCT-15 colon) | TGI (SK-MEL-28 melanoma) | TGI (OVCAR-5 ovarian) | TGI (SR leukemia) | TGI (DU-145 prostate) | TGI (A549 NSCLC) | TGI (ACHN renal)

Source: PubChem BioAssay (NCI)
